Data taken from patent publication US10918733B2, “Lipopeptide- and lipoprotein-conjugates and its use” (HELMHOLTZ-ZENTRUM FUER INFEKTIONSFORSCHUNG GMBH, priority 2009, dated 2021).

B1: LPS free Ova: EndoGrade Ovalbumin, Hyglos GmbH (protein, UniProt P01012 2-386, looked up)
Ovalbumin: GSIGAASMEFCFDVFKELKVHHANENIFYCPIAIMSALAMVYLGAKDSTRTQINKVVRFDKLPGFGDSIEAQCGTSVNVHSSLRDILNQITKPNDVYSFSLASRLYAEERYPILPEYLQCVKELYRGGLEPINFQTAADQARELINSWVESQTNGIIRNVLQPSSVDSQTAMVLVNAIVFKGLWEKAFKDEDTQAMPFRVTEQESKPVQMMYQIGLFRVASMASEKMKILELPFASGTMSMLVLLPDEVSGLEQLESIINFEKLTEWTSSNVMEERKIKVYLPRMKMEEKYNLTSVLMAMGITDVFSSSANLSGISSAESLKISQAVHAAHAEINEAGREVVGSAEAGVDAASVSEEFRADHPFLFCIKHIATNAVLFFGRCVSP
modifications: endotoxin-free
notes: EndoGrade Ovalbumin, Hyglos GmbH

Columns and labels:
[1] = tested on: Ova-specific CD8+ T cells; experiment: Proliferation of CFSE-stained T cells co-cultured with treated DC: CD8+ T cells; format: cell-based, OT1-tg mice; conditions: DC incubated with 10 μg/mL for 24 h, co-culture 4 days
Description: (§1) T cell-mediated immune responses were investigated 96 h by measuring the proliferation of cells recovered from spleens after restimulation with BPPcysOva^mPEG. Non-Ag restimulated spleen cells were chosen as negative controls (FIG. 3). […] Taking into consideration that the BPPcysOva^mPEG has a promising effect on DC activation and maturation, next the capacity of these APC to stimulate the proliferation of antigen-specific CD8+ and CD4+ T cells was evaluated. Concentrations below 10^−8 M of BPPcysOva^mPEG were still able to induce an antigen specific proliferation of CD4+ T cells shown by the reduction of CFSE+ cells (FIGS. 4A-E).
(§2) FIG. 4: Proliferation of CD8+, CD4+ and regulatory T cells. DC were generated from bone marrow of C57BL/6 mice and incubated with 10 μg/mL of B) Ova C) Ova peptides, D) Ova in the presence of BPPcysMPEG and E) BPPcysOva^mPEG alone (A) Control) for 24 h. The following day, CD4+ T cells from spleens of OT2-tg animals or CD8+ T cells of OT1-tg animals were isolated. After staining with CFSE, CD8+, CD4+ T cells were co-cultured with adjuvant-treated DCs for 4 days. The decrease of CFSE-FITC expression due to cell division of CD8+ or CD4+ T cells were analysed by flow cytometric analysis. One representative experiment out of two is shown.

[2] = tested on: Ova-specific CD4+CD25+Foxp3+ regulatory T cells; experiment: Proliferation of T cells co-cultured with treated DC: regulatory T cells; format: cell-based, OTII mice; conditions: DC incubated with 10 μg/mL for 24 h, co-culture 4 days
Description: as §1, §2

[3] = tested on: spleen cells; experiment: Proliferation of spleen cells of immunized mice after in vitro restimulation with Ova, day 42 (Example 5); format: in vivo; conditions: i.n., restimulation with Ova
Description: Experimental protocol: Spleens were removed and pooled for analysis of cellular immune responses. Cells were grown in RPMI 1640 supplemented with 10% fetal calf serum, 100 U/ml of penicillin, 50 μg/ml of streptomycin, 5×10^−5 M 2-mercaptoethanol and 1 mM L-glutamine (GIBCO BRL, Karlsruhe, Germany) and maintained at 37° C. in a humidified 5% CO2 atmosphere. Lymph node and spleen cell suspensions were adjusted to 5×10^6 cells/ml in complete medium, cells were seeded with 100 μl per well in a flat-bottomed 96-well microtiter plate (Nunc) and plates were incubated for 4 days in the presence of different concentrations of Ova. Each concentration was tested in triplicates. During the final 18 h of culture, 1 μCi of [^3H]thymidine (Amersham International, Freiburg, Germany) was added to each well. Cells were then harvested on paper filters (Filtermat A; Wallac, Freiburg, Germany) by using a cell harvester (Inotech, Wohlen, Switzerland), and the amount of incorporated [^3H]thymidine into the DNA of proliferating cells was determined by a β-scintillation counter (Wallac 1450, Micro-Trilux). The results are expressed as the arithmetic mean of [^3H]thymidine uptake in cpm.
T cell-mediated immune responses were investigated at day 42 by measuring the proliferation of cells recovered from spleens after in vitro restimulation with Ova. […]

| Molecule | stimulation of proliferation of Ova-specific CD8+ T cells by treated DC [1] | stimulation of proliferation of Ova-specific CD4+CD25+Foxp3+ regulatory T cells by treated DC [2] | proliferative response of spleen cells, i.n. immunization [3] |
| --- | --- | --- | --- |
| CD4 peptide: Ova CD4 epitope peptide alone (KISQAVHAAHAEINEAG; UniProt P01012 323-339, looked up, fragment) [reference compound] | weak stimulation | very efficiently | – |
| B1 | – | – | failed to induce detectable cellular proliferation |
